In test [1] the target is T1, GDP-KRAS G12D mutant protein (Homo sapiens, UniProt P01116, G12D).
T1 construct: purchased Daegu Gyeongbuk Medical Innovation Foundation (DGMIF), made to order
As to the kind of experiment: Differential scanning fluorimetry (DSF) binding affinity to GDP-KRAS G12D mutant protein. As to conditions: DSF thermal shift, 10 μM compound, 4 μg KRAS protein. In a few lines: (§1)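 Each sample held 4 μg recombinant KRAS G12D (GDP- or GppNHp-bound) and 10 μM compound, incubated 30 min at room temperature before adding 2× SYPRO Orange. The GDP form was run in kit buffer, the GppNHp form in 50 mM HEPES pH 7.5. Melt was 25–99 °C at 0.05 °C/s (580/623 nm), reported as ΔTm versus no compound.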

Test [2] has as its target T2, GppNHp-KRAS G12D mutant protein (Homo sapiens, UniProt P01116, G12D).
T2 construct: purchased Daegu Gyeongbuk Medical Innovation Foundation (DGMIF), made to order
The test can be described thus: Differential scanning fluorimetry (DSF) binding affinity to GppNHp-KRAS G12D mutant protein. As to conditions: DSF thermal shift, 10 μM compound, 4 μg KRAS protein, 50 mM HEPES (pH 7.5). In a few lines:
as §1

For test [3], the system named is ERK phosphorylation (pERK) induced by KRAS G12D mutation. The test can be described thus: Inhibitory activity against ERK phosphorylation (pERK) induced by KRAS G12D mutation, immunofluorescence assay in AsPC-1 cells. In kind it is cell-based. As to conditions: Homo sapiens, ASPC1, 3 h drug treatment, pERK (Thr202/Tyr204) signal normalized to DAPI. In outline: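 AsPC-1 cells attached 16 h, then treated 3 h with 3-fold dilutions from 10 μM top. Fixed, permeabilized, immunostained for pERK (Thr202/Tyr204) with Alexa 488 secondary; high-content imaging, signal normalized to DAPI and to DMSO, IC50 from four-parameter fit.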

The subject of test [4] is KRAS G12D mutant pancreatic cancer cell line AsPC-1. The test can be described thus: Cell viability assay using KRAS G12D mutant cells (AsPC-1, 3D culture, celltiter-glo 3D). In kind it is cell-based. As to conditions: Homo sapiens, ASPC1, 5th day after compound treatment. In a few lines:
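AsPC-1 cells in 3D culture, 1000 cells/well, treated next day with 1/5 serial dilutions from 10 μM or 50 μM, 1:1 v/v. Viability read by CellTiter-Glo 3D on day 5, normalized to DMSO (100%) and untreated backgrounds; IC50 from four-parameter sigmoidal fit.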

The values below come from patent publication US20260209249A1, “NOVEL TRICYCLIC COMPOUND AS KRAS G12D INHIBITOR, AND USE THEREOF” (SK Biopharmaceuticals Co., priority 2022, published 2026).

With `C#Cc1c(F)ccc2cc(O)cc(-c3c(F)c4nc(OCC5(CN6CCC7(CC6)CC7(F)F)CC5)nc(N5C[C@H]6CC[C@@H](C5)N6)c4c4cn(C)nc34)c12` [Example 87, 4-(9-((1R,5S)-3,8-diazabicyclo[3.2.1]octan-3-yl)-7-((1-((1,1-difluoro-6-azaspiro[2.5]octan-6-yl)methyl)cyclopropyl)methoxy)-5-fluoro-2-methyl-2H-pyrazolo[4,3-f]quinazolin-4-yl)-5-ethynyl-6-fluoronaphthalen-2-ol], in test [1], the “GDP-KRAS G12D (ΔTmD, ° C.)” value is 14.94 °C. In addition, in test [2], the “GppNHp-KRAS G12D (ΔTmD, ° C.)” value stood at 8.86 °C. For the same compound, the IC50 in test [3] was found to be 4 nM; in test [4] it was 11 nM.

Take `C#Cc1c(F)ccc2cc(O)cc(-c3c(F)c4nc(OC[C@@]56CCCN5C[C@H](F)C6)nc(N5CC6CCC5CN6)c4c4cn(C)nc34)c12` (stereo partly drawn) [Example 88, 4-(9-(2,5-diazabicyclo[2.2.2]octan-2-yl)-5-fluoro-7-(((2R,7aS)-2-fluorotetrahydro-1H-pyrrolizin-7a(5H)-yl)methoxy)-2-methyl-2H-pyrazolo[4,3-n]quinazolin-4-yl)-5-ethynyl-6-fluoronaphthalen-2-ol]: the “GDP-KRAS G12D (ΔTmD, ° C.)” value in test [1] is 6.35 °C. Also, the “GppNHp-KRAS G12D (ΔTmD, ° C.)” value in test [2] stood at 5.31 °C. The IC50 worked out at 484 nM in test [3] and 734 nM in test [4].

On to `C#Cc1c(F)ccc2cc(O)cc(-c3c(F)c4nc(OC[C@@]56CCCN5CC(=C(F)F)C6)nc(N5C[C@H]6CC[C@@H](C5)N6)c4c4cn(C)nc34)c12` [Example 90, 4-(9-((1R,5S)-3,8-diazabicyclo[3.2.1]octan-3-yl)-7-(((S)-2-(difluoromethylene)tetrahydro-1H-pyrrolizin-7a(5H)-yl)methoxy)-5-fluoro-2-methyl-2H-pyrazolo[4,3-f]quinazolin-4-yl)-5-ethynyl-6-fluoronaphthalen-2-ol], for which the “GDP-KRAS G12D (ΔTmD, ° C.)” value in test [1] was 16.27 °C. In addition, the “GppNHp-KRAS G12D (ΔTmD, ° C.)” value in test [2] came out at 11.38 °C. Also, the IC50 came out at 5 nM in test [3] and 4 nM in test [4].

For the compound `CCc1c(F)ccc2cc(O)cc(-c3c(F)c4nc(OC[C@@]56CCCN5C[C@H](F)C6)nc(N5C[C@H]6CC[C@@H](C5)N6)c4c4cn(C)nc34)c12` [Example 93, 4-(9-((1R,5S)-3,8-diazabicyclo[3.2.1]octan-3-yl)-5-fluoro-7-(((2R,7aS)-2-fluorotetrahydro-1H-pyrrolizin-7a(5H)-yl)methoxy)-2-methyl-2H-pyrazolo[4,3-n]quinazolin-4-yl)-5-ethyl-6-fluoronaphthalen-2-ol], in test [1], the “GDP-KRAS G12D (ΔTmD, ° C.)” value amounted to 14.20 °C. In test [2], the “GppNHp-KRAS G12D (ΔTmD, ° C.)” value came to 8.72 °C. The IC50 in test [3] is 16 nM; in test [4], 38 nM.

On to `C#Cc1c(F)ccc2cc(O)cc(-c3c(F)c4nc(OC[C@@]56CCCN5C/C(=C\F)C6)nc(N5C[C@H]6CC[C@@H](C5)N6)c4c4cn(C)nc34)c12` [Example 94, 4-(9-((1R,5S)-3,8-diazabicyclo[3.2.1]octan-3-yl)-5-fluoro-7-(((S,Z)-2-(fluoromethylene)tetrahydro-1H-pyrrolizin-7a(5H)-yl)methoxy)-2-methyl-2H-pyrazolo[4,3-f]quinazolin-4-yl)-5-ethynyl-6-fluoronaphthalen-2-ol], for which the “GDP-KRAS G12D (ΔTmD, ° C.)” value in test [1] stood at 17.46 °C. In addition, the “GppNHp-KRAS G12D (ΔTmD, ° C.)” value in test [2] worked out at 12.28 °C. The IC50 in test [3] was 18 nM; in test [4], 14 nM.

As for `Cn1cc2c(n1)c(-c1cc(O)cc3ccc(F)c(F)c13)c(F)c1nc(OC[C@@]34CCCN3C[C@H](F)C4)nc(N3C[C@H]4CC[C@@H](C3)N4)c12` [Example 95, 4-(9-((1R,5S)-3,8-diazabicyclo[3.2.1]octan-3-yl)-5-fluoro-7-(((2R,7aS)-2-fluorotetrahydro-1H-pyrrolizin-7a(5H)-yl)methoxy)-2-methyl-2H-pyrazolo[4,3-f]quinazolin-4-yl)-5,6-difluoronaphthalen-2-ol], the “GDP-KRAS G12D (ΔTmD, ° C.)” value in test [1] is 11.83 °C. The “GppNHp-KRAS G12D (ΔTmD, ° C.)” value in test [2] was 7.54 °C. Besides, the half-inhibitory concentration (IC50) in test [3] was 82 nM; in test [4], 263 nM.

Take `C#Cc1c(F)ccc2cc(O)cc(-c3c(F)c4nc(OC[C@@]56CC[C@@H](COC)N5CC(=C)C6)nc(N5C[C@H]6CC[C@@H](C5)N6)c4c4cn(C)nc34)c12` [Example 96, 4-(9-((1R,5S)-3,8-diazabicyclo[3.2.1]octan-3-yl)-5-fluoro-7-(((5S,7aS)-5-(methoxymethyl)-2-methylenetetrahydro-1H-pyrrolizin-7a(5H)-yl)methoxy)-2-methyl-2H-pyrazolo[4,3-n]quinazolin-4-yl)-5-ethynyl-6-fluoronaphthalen-2-ol]: the “GDP-KRAS G12D (ΔTmD, ° C.)” value in test [1] stood at 15.09 °C. Moreover, in test [2], the “GppNHp-KRAS G12D (ΔTmD, ° C.)” value was 10.64 °C. In addition, the IC50 in test [3] was 20 nM; in test [4] it was 11 nM.
